According to patent publication US20250041382A1, “ANTIVIRAL COMPOSITION COMPRISING OCTOMININ” (priority 2023, published 2025):
Several values for one entry are separate records, joined by “and”; a condition that tells them apart may be missing. Equal entries are not always repeated. Blank lines part the entries; values can stand above or below the molecule they belong to. Peptide text beside a SMILES is read from it.

What was measured:
in vitro [1] = assay type: cell-based
IHNV (RtPy91 strain) = assay: microbe, parasite or virus in culture
Protocol: (§1) Specifically, three major fish pathogenic viruses VHSV (F1Wa05 strain), IHNV (RtPy91 strain), and IPNV (VR299 strain) were used to study the antiviral activity of Octominin. Octominin at various concentrations reacted with an equal amount of virus (infectious titer: 200 TCID50/mL) at 15° C. for 1 hour. Thereafter, the reactant was overlaid onto quadruplicate FHM cells in a 96-well plate (1×10^5 cells/mL) and incubated for 96 hours.
(§2) CPE was scored by optical microscopy using a DIAPHOT 300 inverted microscope (Nikon Cooperation, Tokyo, Japan) (score 0, 0% CPE; score 1, 10 to 20% CPE; score 2, 30 to 40% CPE; score 3, 50 to 60% CPE; score 4, 70 to 80% CPE; and score 5, 90 to 100%). The results were expressed as a 50% effective concentration (EC50) and calculated using Microsoft Excel software. Ribavirin, a known broad-spectrum antiviral agent, was used as a positive control group. The antiviral activity of Octominin was evaluated by calculation using Equation SI (selective index)=CC50/EC50.

IPNV (VR299 strain) = assay: microbe, parasite or virus in culture
Protocol: as §1, §2

VHSV (F1Wa05 strain) = assay: Cytopathic effect (CPE) reduction assay, VHSV in FHM cells
Protocol: as §1, §2

in vitro [2] = assay type: cell-based; details: fathead minnow
[3] = fathead minnow (Pimephales promelas), 96 h

Structure (SMILES): CC[C@H](C)[C@H](NC(=O)[C@H](C)NC(=O)[C@H](CCCCN)NC(=O)CNC(=O)[C@H](C)NC(=O)[C@H](Cc1c[nH]cn1)NC(=O)[C@@H](NC(=O)[C@H](C)NC(=O)CNC(=O)[C@H](CCCNC(=N)N)NC(=O)[C@@H](NC(=O)[C@H](CC(C)C)NC(=O)[C@H](Cc1c[nH]c2ccccc12)NC(=O)CN)[C@@H](C)CC)[C@@H](C)CC)C(=O)N[C@@H](Cc1c[nH]cn1)C(=O)NCC(=O)N[C@@H](CC(C)C)C(=O)N[C@H](C(=O)N[C@@H](Cc1c[nH]cn1)C(=O)N[C@@H](CCCNC(=N)N)C(=O)N[C@@H](CCCNC(=N)N)C(=O)N[C@@H](CCCNC(=N)N)C(=O)N[C@@H](Cc1c[nH]cn1)C(=O)O)[C@@H](C)CC [Octominin] (H-GWLIRGAIHAGKAIHGLIHRRRH-OH)
CC50 (in vitro [1]; Chinook salmon (Oncorhynchus tshawytscha)): 1870 µg/mL and 990 µM | SI (selective index)=CC50/EC50 (IHNV (RtPy91 strain); [3]): 4.9 | SI (selective index)=CC50/EC50 (IPNV (VR299 strain); Chinook salmon (Oncorhynchus tshawytscha), 96 h): 2.0 | SI (selective index)=CC50/EC50 (VHSV (F1Wa05 strain); [3]): 2.9

EC50 (VHSV (F1Wa05 strain); Viral hemorrhagic septicemia virus, 96 h): 270 nM
Structure (SMILES): NC(=O)c1ncn([C@@H]2O[C@H](CO)[C@@H](O)[C@H]2O)n1 [Ribavirin]
CC50 (in vitro [1]; Chinook salmon): 121 µM | EC50 (IHNV (RtPy91 strain); Infectious hematopoietic necrosis virus, 96 h): 550 nM | selectivity ratio at 96 h (IHNV (RtPy91 strain); fathead minnow): 1750 | selectivity ratio at 96 h (IPNV (VR299 strain); Chinook salmon): 162 | EC50 (IPNV (VR299 strain); Infectious pancreatic necrosis virus, CHSE-214): 750 nM | CC50 (in vitro [2]): 962 µM | selectivity ratio at 96 h (VHSV (F1Wa05 strain); fathead minnow, FHM cells infected with VHSV (F1Wa05 strain)): 3560
